Source: ChEMBL document CHEMBL5608213, “Synthesis of furanotriterpenoids from betulin and evaluation of Tyrosyl-DNA phosphodiesterase 1 (Tdp1) inhibitory properties of new semi-synthetic triterpenoids” (Eur J Med Chem, 2024)

Experiments:
MCF7 = assay: Cytotoxicity against human MCF7 cells incubated for 72 hrs by MTT assay; type: functional
HepG2 = assay: Cytotoxicity against human HepG2 cells incubated for 72 hrs by MTT assay; type: functional
PC-3 = assay: Cytotoxicity against human PC-3 cells incubated for 72 hrs by MTT assay; type: functional
A549 = assay: Cytotoxicity against human A549 cells incubated for 72 hrs by MTT assay; type: functional
[1] = target: Tyrosyl-DNA phosphodiesterase 1 (Homo sapiens, UniProt Q9NUW8); assay: Inhibition of Tdp1 (unknown origin) using 5'-[FAM]AACGTCAGGGTCTTCC[BHQ1]-3' as substrate measured every 55 sec by fluorescence based analysis
RD = assay: Cytotoxicity against human RD cells incubated for 72 hrs by MTT assay; type: functional
[2] = Cytotoxicity against human HeLa-V cells incubated for 72 hrs by MTT assay; type: functional
[3] = Cytotoxicity against human MCF-10A cells incubated for 72 hrs by MTT assay; type: toxicity, cell-based
[4] = Cytotoxicity against human HeLa-V cells assessed as reduction in cell viability incubated for 72 hrs in presence of 0.5 uM topotecan by MTT assay; type: functional
[5] = Cytotoxicity against HEK293 cells incubated for 72 hrs by MTT assay; type: toxicity, cell-based; settings: human
MDA-MB-453 = assay: Cytotoxicity against human MDA-MB-453 cells incubated for 72 hrs by MTT assay; type: functional
[6] = Cytotoxicity against human Mel-MS cells incubated for 72 hrs by MTT assay; type: functional
MDA-MB-231 = assay: Cytotoxicity against human MDA-MB-231 cells incubated for 72 hrs by MTT assay; type: functional
HCT-116 = assay: Cytotoxicity against human HCT-116 cells incubated for 72 hrs by MTT assay; type: functional
[7] = Cytotoxicity against human HeLa-V cells assessed as cell viability at <=12.5 uM incubated for 72 hrs in presence of 0.5 uM topotecan by MTT assay relative to control; type: functional; settings: up to 12.5 µM
[8] = Sensitization of topotecan-induced cytotoxicity against human HeLa-V cells assessed as reduction in cell viability by measuring fold change in topotecan CC50 at 10 uM incubated for 72 hrs by MTT assay relative to topotecan alone; type: functional

Chain of Tyrosyl-DNA phosphodiesterase 1 (Q9NUW8 whole entry): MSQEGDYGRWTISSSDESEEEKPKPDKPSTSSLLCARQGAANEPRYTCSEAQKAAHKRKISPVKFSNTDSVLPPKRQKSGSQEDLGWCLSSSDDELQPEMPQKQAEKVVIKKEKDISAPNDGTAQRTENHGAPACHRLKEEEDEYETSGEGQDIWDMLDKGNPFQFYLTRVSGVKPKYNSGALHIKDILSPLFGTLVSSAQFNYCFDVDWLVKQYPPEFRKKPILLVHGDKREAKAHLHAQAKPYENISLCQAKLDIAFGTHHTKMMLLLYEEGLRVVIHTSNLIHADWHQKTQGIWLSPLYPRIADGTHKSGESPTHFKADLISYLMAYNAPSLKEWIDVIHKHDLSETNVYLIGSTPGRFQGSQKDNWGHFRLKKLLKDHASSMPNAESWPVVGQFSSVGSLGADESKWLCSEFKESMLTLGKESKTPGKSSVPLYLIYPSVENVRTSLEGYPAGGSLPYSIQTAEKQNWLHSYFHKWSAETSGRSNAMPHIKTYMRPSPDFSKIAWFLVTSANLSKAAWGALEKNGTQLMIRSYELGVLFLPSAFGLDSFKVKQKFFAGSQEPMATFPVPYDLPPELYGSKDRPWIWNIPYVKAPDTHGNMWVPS

IC50 [1] [µM]	SMILES	CC50 (MCF7) [µM]	CC50 (HepG2) [µM]	CC50 (PC-3) [µM]	CC50 (A549) [µM]	CC50 (RD) [µM]	CC50 [2] [µM]	CC50 at 72 h [3] [µM]	CC50 [4] [µM]	CC50 at 72 h [5] [µM]	CC50 (MDA-MB-453) [µM]	CC50 [6] [µM]	CC50 (MDA-MB-231) [µM]	CC50 (HCT-116) [µM]	Activity [7] [%]	fold change (FC) [8]
2	CC(C)[C@@H]1CC[C@]2(COC(=O)c3ccccc3)CC[C@]3(C)[C@H](CC[C@@H]4[C@@]5(C)/C(=N/O)[C@H]6O[C@H]6C(C)(C)[C@@H]5CC[C@]43C)[C@@H]12	> 100	> 100	62.2	> 100	> 100	28	> 100	13.1	> 100	> 100	> 100	> 100	> 100	–	–
2.9	CC(C)[C@@H]1CC[C@]2(CO)CC[C@]3(C)[C@H](CC[C@@H]4[C@@]5(C)/C(=N/O)C[C@@H](O)C(C)(C)[C@@H]5CC[C@]43C)[C@@H]12	> 100	> 100	> 100	> 100	> 100	> 100	> 100	–	> 100	> 100	> 100	> 100	57.4	–	–
> 100	CC(C)[C@@H]1CC[C@]2(COC(=O)c3ccccc3)CC[C@]3(C)[C@H](CC[C@@H]4[C@@]5(C)CC=CC(C)(C)[C@@H]5CC[C@]43C)[C@@H]12	> 100	> 100	> 100	> 100	> 100	> 100	> 100	–	> 100	> 100	> 100	> 100	> 100	–	–
–	CC(C)[C@@H]1CC[C@]2(COC(=O)c3ccccc3)CC[C@]3(C)[C@H](CC[C@@H]4[C@@]5(C)CC[C@H](O)C(C)(C)[C@@H]5CC[C@]43C)[C@@H]12	> 100	> 100	> 100	> 100	> 100	> 100	> 100	–	> 100	> 100	> 100	> 100	> 100	–	–
1.97	C=C1[C@H](C(C)(C)[C@@H](O)CC#N)CC[C@]2(C)[C@@H]1CC[C@@H]1[C@H]3[C@H](C(C)C)CC[C@]3(COC(=O)c3ccccc3)CC[C@]12C	> 100	> 100	> 100	> 100	> 100	> 100	> 100	≤ 35.1	> 100	> 100	> 100	> 100	> 100	~80	<1.5
7	CC(C)[C@@H]1CC[C@]2(COC(=O)c3ccccc3)CC[C@]3(C)[C@H](CC[C@@H]4[C@@]5(C)OC(CC#N)C(C)(C)[C@@H]5CC[C@]43C)[C@@H]12 (mixture of isomers)	> 100	> 100	> 100	58.6	> 100	> 100	> 100	–	> 100	> 100	> 100	> 100	> 100	–	–
–	COc1cccc2c1C(=O)c1c(O)c3c(c(O)c1C2=O)C[C@@](O)(C(=O)CO)C[C@@H]3O[C@H]1C[C@H](N)[C@H](O)[C@H](C)O1 [DOXORUBICIN]	0.4	1.8	12.6	2	1.3	2.67	0.5	–	0.4	0.04	1.3	0.34	1.3	–	–
–	CC[C@@]1(O)C(=O)OCc2c1cc1n(c2=O)Cc2cc3c(CN(C)C)c(O)ccc3nc2-1 [TOPOTECAN]	–	–	–	–	–	0.456	–	–	–	–	–	–	–	–	–

SMILES	IC50 [1] [µM]	CC50 (MCF7) [µM]	CC50 (HepG2) [µM]	CC50 (PC-3) [µM]	CC50 (A549) [µM]	CC50 (RD) [µM]	CC50 [2] [µM]	CC50 at 72 h [3] [µM]	CC50 [4] [µM]	CC50 at 72 h [5] [µM]	CC50 (MDA-MB-453) [µM]	CC50 [6] [µM]	CC50 (MDA-MB-231) [µM]	CC50 (HCT-116) [µM]	Activity [7] [%]	fold change (FC) [8]
CC(C)[C@@H]1CC[C@]2(COCc3ccccc3)CC[C@]3(C)[C@H](CC[C@@H]4C(=O)C(C(C)(C)[C@H](CC#N)OC(=O)Cl)CC[C@]43C)[C@@H]12 (some centres not stated)	12	> 100	> 100	> 100	56.9	> 100	> 100	> 100	–	> 100	> 100	> 100	> 100	> 100	–	–
CC(C)[C@@H]1CC[C@]2(CO)CC[C@]3(C)[C@H](CC[C@@H]4[C@@]5(C)O[C@H](CC#N)C(C)(C)[C@@H]5CC[C@]43C)[C@@H]12	1	39.2	> 200	> 100	89.9	79	31.6	> 100	14.8	> 100	> 100	> 100	> 100	> 100	~80	–
